Source: ChEMBL document CHEMBL3885881, “DrugMatrix”

Organism: Rattus norvegicus
Assay: DrugMatrix - Regimen: Daily Repeat
Format: toxicity, organism-based, Sprague-Dawley
Design: regimen Daily Repeat, gender Male, age 6-8 weeks
Conditions: in vivo, po, 17 mg/kg, route oral GAVAGE, dose level High, vehicle .5 % CMC; for ABSOLUTE BASOPHIL / ABSOLUTE EOSINOPHIL / ABSOLUTE LYMPHOCYTE / ABSOLUTE MONOCYTE / ABSOLUTE SEGMENTED NEUTROPHIL / BASOPHIL / EOSINOPHIL / ERYTHROCYTE COUNT / HEMATOCRIT / HEMOGLOBIN / LEUKOCYTE COUNT / LYMPHOCYTE / MEAN CORPUSCULAR HEMOGLOBIN / MEAN CORPUSCULAR HEMOGLOBIN CONCENTRATION / MONOCYTE / NEUTROPHIL / NUCLEATED RED BLOOD CELLS / PLATELET COUNT: tissue Blood
[1] = 72 h, tissue Plasma, time 3 day
[2] = 96 h, tissue Plasma, time 4 day

O=C(Nc1c(Cl)cncc1Cl)c1ccc(OC(F)F)c(OCC2CC2)c1 [ROFLUMILAST]
ABSOLUTE BASOPHIL (72 h, time 3 day): 0 CELLS/uL | ABSOLUTE EOSINOPHIL (72 h, time 3 day): 460.33 CELLS/uL | ABSOLUTE LYMPHOCYTE (72 h, time 3 day): 8656.33 CELLS/uL | ABSOLUTE MONOCYTE (72 h, time 3 day): 1347.33 CELLS/uL | ABSOLUTE SEGMENTED NEUTROPHIL (72 h, time 3 day): 10002.67 CELLS/uL | BASOPHIL (72 h, time 3 day): 0% | EOSINOPHIL (72 h, time 3 day): 2.33% | ERYTHROCYTE COUNT (72 h, time 3 day): 6.23 x10E6/uL | HEMATOCRIT (72 h, time 3 day): 37.23% | HEMOGLOBIN (72 h, time 3 day): 13.5 G/DL | LEUKOCYTE COUNT (72 h, time 3 day): 20.47 x10E3/uL | LYMPHOCYTE (72 h, time 3 day): 42.67% | MEAN CORPUSCULAR HEMOGLOBIN (72 h, time 3 day): 21.7 pg | MEAN CORPUSCULAR HEMOGLOBIN CONCENTRATION (72 h, time 3 day): 36.27 G/DL | MONOCYTE (72 h, time 3 day): 6.33% | NEUTROPHIL (72 h, time 3 day): 48.67% | NUCLEATED RED BLOOD CELLS (72 h, time 3 day): 0 /100WBC | PLATELET COUNT (72 h, time 3 day): 1131 x10E3/uL | ALANINE AMINOTRANSFERASE [1]: 18 u/L | ALBUMIN [1]: 3.07 G/DL | ALKALINE PHOSPHATASE [1]: 189.33 u/L | ASPARTATE AMINOTRANSFERASE [1]: 63 u/L | BLOOD UREA NITROGEN [1]: 17.33 mg/dL | CARBON DIOXIDE [1]: 28.33 mmol/L | CHLORIDE [1]: 97.33 MEQ/L | CHOLESTEROL [1]: 61 mg/dL | CREATININE [1]: 0.15 mg/dL | GLUCOSE [1]: 131.67 mg/dL | LACTATE DEHYDROGENASE [1]: 149.67 u/L | LIPASE [1]: 8.33 u/L | PHOSPHORUS [1]: 10.43 mg/dL | POTASSIUM [1]: 4.72 MEQ/L | SODIUM [1]: 144.73 MEQ/L | TOTAL BILIRUBIN [1]: 0.1 mg/dL | TOTAL PROTEIN [1]: 6.4 G/DL | URIC ACID [1]: 1.37 mg/dL | ABSOLUTE BASOPHIL (96 h, time 4 day): 0 CELLS/uL | ABSOLUTE EOSINOPHIL (96 h, time 4 day): 0 CELLS/uL | ABSOLUTE LYMPHOCYTE (96 h, time 4 day): 3924 CELLS/uL | ABSOLUTE MONOCYTE (96 h, time 4 day): 981 CELLS/uL | ABSOLUTE SEGMENTED NEUTROPHIL (96 h, time 4 day): 16695 CELLS/uL | BASOPHIL (96 h, time 4 day): 0% | EOSINOPHIL (96 h, time 4 day): 0% | ERYTHROCYTE COUNT (96 h, time 4 day): 6.21 x10E6/uL | HEMATOCRIT (96 h, time 4 day): 36.1% | HEMOGLOBIN (96 h, time 4 day): 13.4 G/DL | LEUKOCYTE COUNT (96 h, time 4 day): 21.6 x10E3/uL | LYMPHOCYTE (96 h, time 4 day): 18% | MEAN CORPUSCULAR HEMOGLOBIN (96 h, time 4 day): 21.6 pg | MEAN CORPUSCULAR HEMOGLOBIN CONCENTRATION (96 h, time 4 day): 37.15 G/DL | MONOCYTE (96 h, time 4 day): 4.5% | NEUTROPHIL (96 h, time 4 day): 77.5% | NUCLEATED RED BLOOD CELLS (96 h, time 4 day): 0 /100WBC | PLATELET COUNT (96 h, time 4 day): 1458.5 x10E3/uL | ALANINE AMINOTRANSFERASE [2]: 19 u/L | ALBUMIN [2]: 2.45 G/DL | ALKALINE PHOSPHATASE [2]: 153.5 u/L | ASPARTATE AMINOTRANSFERASE [2]: 51.5 u/L | BLOOD UREA NITROGEN [2]: 24 mg/dL | CARBON DIOXIDE [2]: 32 mmol/L | CHLORIDE [2]: 96.5 MEQ/L | CHOLESTEROL [2]: 50.5 mg/dL | CREATININE [2]: 0.16 mg/dL | GLUCOSE [2]: 112.5 mg/dL | LACTATE DEHYDROGENASE [2]: 173 u/L | LIPASE [2]: 7.5 u/L | PHOSPHORUS [2]: 10.1 mg/dL | POTASSIUM [2]: 5.21 MEQ/L | SODIUM [2]: 143.95 MEQ/L | TOTAL BILIRUBIN [2]: 0.15 mg/dL | TOTAL PROTEIN [2]: 6 G/DL
